Measured values reported in the NIST ThermoML archive (doi:10.1021/je049559v).
Several values for one entry are separate records, joined by “and”; a condition that tells them apart may be missing. Equal entries are not always repeated.

Conditions: Liquid; for viscosity: Capillary tube (Ostwald / Ubbelohde) method; for mass density: Vibrating tube method

COCOC [dimethoxymethane]
Conditions	mass density [kg/m3]	viscosity
218.09 K	–	1.263 mPa·s
223.09 K	–	1.099 mPa·s
228.1 K	–	0.9649 mPa·s
228.11 K	–	0.9648 mPa·s
233.1 K	–	0.8557 mPa·s and 0.8556 mPa·s
233.16 K	935.5	–
238.11 K	–	0.7648 mPa·s
243.14 K	–	0.6886 mPa·s
243.15 K	–	0.6885 mPa·s
243.16 K	923.8	–
248.14 K	–	0.6248 mPa·s
253.13 K	–	0.5705 mPa·s
253.14 K	–	0.5705 mPa·s
253.16 K	912.4	–
258.12 K	–	0.524 mPa·s
258.15 K	–	0.5238 mPa·s
263.07 K	–	0.4841 mPa·s
263.09 K	–	0.4839 mPa·s
263.15 K	899.6	–
268.09 K	–	0.4489 mPa·s
273.05 K	–	0.4183 mPa·s
273.15 K	886	–
278.05 K	–	0.3912 mPa·s
283.1 K	–	0.3669 mPa·s
283.15 K	872.3	–
288.17 K	–	0.3452 mPa·s and 0.3451 mPa·s
293.09 K	–	0.3262 mPa·s
293.15 K	858.1	–
298.12 K	–	0.3086 mPa·s
298.13 K	–	0.3086 mPa·s
303.12 K	–	0.2927 mPa·s
303.13 K	–	0.2927 mPa·s
303.15 K	842.8	–
308.16 K	–	0.2781 mPa·s
308.17 K	–	0.2781 mPa·s
313.15 K	827.9	–
313.16 K	–	0.2647 mPa·s
318.16 K	–	0.2524 mPa·s
318.17 K	–	0.2524 mPa·s
323.15 K	–	0.241 mPa·s and 0.2409 mPa·s
323.16 K	814.1	–
328.14 K	–	0.2303 mPa·s
333.14 K	–	0.2202 mPa·s
333.15 K	800	0.2202 mPa·s
338.15 K	–	0.2107 mPa·s
343.15 K	785.2	0.2017 mPa·s
348.16 K	–	0.1931 mPa·s
353.12 K	–	0.185 mPa·s
353.13 K	–	0.185 mPa·s
353.16 K	770.8	–
358.16 K	–	0.1771 mPa·s
363.11 K	755.9	–
363.15 K	–	0.1696 mPa·s
368.14 K	–	0.1624 mPa·s
368.16 K	–	0.1623 mPa·s
373.14 K	–	0.1554 mPa·s
378.15 K	–	0.1486 mPa·s
383.15 K	–	0.142 mPa·s
383.16 K	–	0.142 mPa·s
